Experiment [1] has as its system T1, membrane-associated CD39 of Farage cells.
T1 construct: endogenous in cells; host or cells: Farage
In words: Cell-based membrane-associated CD39 activity. Set-up: species or system human. The settings on record: 50μM inhibitor, Farage cells 200K per ml, 5 μM ATP, 37°C. As for the experimental part:
For CD39 activity, since it uses both ADP and ATP, we determined its activity using 5 μM final concentration each, as substrate as described above. In a separate plate or microcentrifuge tube, a 25μl aliquots were withdrawn from each well at desired time point and delivered into an assay solid white plate (Corning Costar 3912 or equivalent).
For ADP as substrate, detection of remaining ADP was carried out by preparing AMP Detection Solution (adding 10μl AMP-Glo™ Reagent II to one-ml of Kinase-Glo® One Solution, gently mixing well by inverse tube couple times). To the 25 μl aliquoted from the medium supernatant that was cooled down to room temperature, 25μl of AMP Detection Solution is added to each well, mixed well and incubated for 60min at 23°C, the plates were read using luminometer.
For ATP as substrate, detection of remaining ATP, was carried out using 25μl withdrawn from the medium supernatant that was cooled down to room temperature and 25μl of Kinase-Glo® One Solution were added to each well, mixed well and incubated for 10min at 23°C, then the plate was read using luminometer.
• B Suspension cells. Cells were harvested and washed two times with HBSS by centrifugation at 1,000 rpm at room temperature for 8~10min, discarding the supernatant and cell pellets were diluted to a desired cell number per ml before experiments. […]

The subject of a further experiment is luciferase. In words: Control test of the compound on luciferase activity. The experiment is classed as biochemical. The settings on record: control for assay interference. An excerpt: Although we have not tested this assay using orthogonal assay, very recent publication used this technology (AMP Glo) to develop what they called “an exceptionally potent inhibitor of human […]” (Bowman CE, da Silva RG, Pham A, Young SW. An exceptionally potent inhibitor of human CD73. Biochemistry 2019; 58: 3331-3334) and compared their kinetic data using inorganic phosphate release and the data confirmed the validity of bioluminescence approach. Furthermore, since we launched ADP Glo for kinases and ATPases, it has been cited in over 1500 citations as well as numerus patents, and it is the main assay used for large scale screening for inhibitors in HTS laboratories. Besides, we have not found potent inhibitors of this assay other than few luciferase inhibitors which would be excluded when controls were run simultaneously. Protein concentration used in western blots for CD39 or CD39 in cells should be shown using either a housekeeping control, or the total protein concentration shown if other methods were used. Alternatively, a FACS based assay could be performed to show expression of cell surface […] or CD39.

These results are taken from publication PMC6814236, “Monitoring and characterizing soluble and membrane-bound ectonucleotidases CD73 and CD39” (PLoS ONE, 2019).

Structures are written as SMILES.

Regarding `[Na+].[Na+].[Na+].[Na+].[Na+].[Na+].[O]=[W](=[O])([O-])[O-].[O]=[W](=[O])([O-])[O-].[O]=[W](=[O])([O-])[O-].[O]=[W](=[O])=[O].[O]=[W](=[O])=[O].[O]=[W](=[O])=[O].[O]=[W](=[O])=[O].[O]=[W](=[O])=[O].[O]=[W](=[O])=[O].[O]=[W](=[O])=[O].[O]=[W](=[O])=[O].[O]=[W](=[O])=[O]` [POM1, Sodium metatungstate], the “inhibition of membrane-associated CD39 activity” value in experiment [1] is given as “inhibited”. The “effect on luciferase activity” value in the experiment with luciferase was “no inhibitory effect”.
